Patent publication US10328075B2, “Method of treatment and compounds for use therein” (Baker Heart and Diabetes Institute, priority 2015, dated 2019)
No end group written: not given here.

System: myocardial I-R injury in C57BL/6 mice
Assay: Myocardial I-R in mice: cardiac inflammation after 48 h reperfusion
Format: in vivo, mouse
Conditions: for Effect on LV injury score / cell infiltration (H&E) / Effect on LV macrophage (CD68+) signal / Reduction of LV neutrophil content (Ly-6B.2) / Effect on LV neutrophil (Ly-6B.2) signal (in words): 60 min ischaemia, 48 h reperfusion
Method: Male C57BL/6 mice were breed and housed in the AMREP Animal Centre and maintained under a 12 h light/dark cycle. After anaesthesia (i.p., ketamine 80 mg/kg, xylazine 20 mg/kg and atropine 1.2 mg/kg), mice were randomly assigned to 24 h, 48 h and 7 days reperfusion groups and underwent reversible left arterial descending (LAD) ligation as described (Gao XM, 2011; JMCC, 50; Gao XM, 2000, JMCC). Following sedation, mice were intubated and ventilated (Harvard apparatus, MA, USA) with room air mixed with oxygen (tidal volume 0.25 mL, 150 breath/min), and placed on a heating pad. A left thoractomy will be made via the ˜third intercostal space, where the beating heart was located.
The LAD was reversibly ligated using 7-0 silk suture with a slipknot enclosing two releasing rings. Regional ischaemia was confirmed by pale colour of the ligated area. Air was then evacuated from the chest, the cavity was closed and normal respiration was restored. After 40-60 min of ischaemia, blood flow through the left coronary artery was re-established by releasing the slipknot. Sham-operated mice underwent identical surgical procedures except the coronary arteries were not ligated. Three cohorts of mice were scheduled. Cohort 1 was subjected to 40 min ischaemic-24 h reperfusion for the assessment of cardiac necrosis. Cohort 2 was subjected to 60 min occlusion with 48 h reperfusion for the quantification of cardiac and systemic inflammation. The last cohort was subjected to 7 d reperfusion and early cardiac fibrosis was assessed.
Treatment with study drugs: Animals were randomly assigned to different groups and all treatments were administrated 5 min prior to reperfusion of the LAD. The peptide Ac2-26 (1 mg kg^−1) (Chemieliva, Chongqing, China) and its vehicle (10% dimethyl sulfoxide (DMSO) in saline) were intravenously (i.v.) injected via the tail vein. […] Mice then received drug or vehicle injections daily until the experimental endpoint. The two different vehicles groups reflect different study drug solubility and administration routes.
Assessment of cardiac inflammation: LV tissue embedded in OCT compound following 60 min ischaemia and 48 h reperfusion were sectioned at 6 μm for immunofluorescent analysis. Sections were pre-incubated with 4% paraformaidehyde for 20 min and 10% normal goat serum for a further 30 min. Sections were then incubated at room temperature (RT) with either CD68+ primary antibody or Ly-6B.2 primary antibody (1:200, ABD Serotec, Raleigh, USA) for 1 h, followed 30 min incubation with the Alexa Fluor 546 secondary antibody (1:200, Invitrogen, Carlsbad, USA), to detect cardiac macrophage and neutrophil infiltration, respectively. Finally, sections were incubated with 0.001% Hoechst 33342 (Invitrogen, Melbourne, Australia) for 30 min, to elicit nuclear staining. Single images were photographed using a Nikon A1R confocal microscope (Nikon Instruments Inc., NY, USA) under 20× magnification, and 9×9 single images were then automatically stitched together using NIS-Elements AR software (version 4.10 for Windows, Nikon Instruments Inc., NY, USA) to form each whole LV section. The images for infarct area were captured under 40× magnification, and the stitched images were then analysed using Fiji software (version 1.48c for Max OS X, National Institutes of Health, USA). The threshold was set for each image, to enable optimal sensing of red fluorescence intensity above threshold, and the software then automatically quantified these red fluorescent signals.
Assessment of cardiac histology and fibrosis: LV hearts fixed in NBF after 40 min ischaema and 7 d reperfusion were embedded in paraffin by the Alfred Pathology Service (Melbourne, Australia) and sectioned at 4 μm with a Leica 2135 microtome (Leica Microsystems, Wetzlar, Germany). Sections were stained with haematoxylin and eosin (H&E) for assessment of myocardial morphology, or picrosirius red (0.1%, Fluka, Bucks, Switzerland; pH2) for cardiac collagen deposition. […]

Molecule	Effect on cardiac inflammation 48 h post I-R (50 mg/kg i.p.)	Effect on LV injury score / cell infiltration (H&E)	Effect on LV macrophage (CD68+) signal	Reduction of LV neutrophil content (Ly-6B.2)	Effect on LV neutrophil (Ly-6B.2) signal (in words) (50 mg/kg i.p.)	Cardioprotection: Inflammation (Table 9)	Effect on LV neutrophil (Ly-6B.2) signal (in words) (50 mg/kg i.p., listed as Cmpd43, 50 mg/kg)
COc1cccc(Cc2cc(C)nn(C(C)C(=O)Nc3ccc(Br)cc3)c2=O)c1 (stereo not drawn) [BIDI-001, N-(4-bromophenyl)-2-[5-(3-methoxybenzyl)-3-methyl-6-oxo-6H-pyridazin-1-yl]-propionamide]	reduces cardiac inflammation	not	tended to be reduced	~50%	significantly attenuated the Ly-6B.2 neutrophil signal by almost half	↓↓	
CC(C)C1C(NC(=O)Nc2ccc(Cl)cc2)C(=O)N(c2ccccc2)N1C (stereo not drawn) [BIDI-002]		significantly attenuated	tended to be reduced				absent
Ac2-26: Annexin-A1 N-terminal peptide, peptide ANX-A1 mimetic (Ac-AMVSEFLKQAWFIENEEQEYVQTVK; UniProt P04083 2-26, looked up, fragment)		significantly inhibited	non-significant trend	approximately 35%			
